The values that follow come from PMC6226504, “Ca^2+ efflux via plasma membrane Ca^2+-ATPase mediates chemotaxis in ascidian sperm” (Scientific Reports, 2018).

The target of the test is T1, plasma membrane Ca2+-ATPase (PMCA), Atp2b-var.b-mut3 (Ciona intestinalis, UniProt A0A3G9HPC9, R951A/H956A/H962A).
T1 construct: Atp2b-var.b-mut3, recombinant, in Sf9 cell membrane fraction
The experiment in a line: quartz crystal microbalance (QCM), mutant compared with wild-type membranes. It counts as binding.

T1 sequence (A0A3G9HPC9 1-1165 R951A/H956A/H962A): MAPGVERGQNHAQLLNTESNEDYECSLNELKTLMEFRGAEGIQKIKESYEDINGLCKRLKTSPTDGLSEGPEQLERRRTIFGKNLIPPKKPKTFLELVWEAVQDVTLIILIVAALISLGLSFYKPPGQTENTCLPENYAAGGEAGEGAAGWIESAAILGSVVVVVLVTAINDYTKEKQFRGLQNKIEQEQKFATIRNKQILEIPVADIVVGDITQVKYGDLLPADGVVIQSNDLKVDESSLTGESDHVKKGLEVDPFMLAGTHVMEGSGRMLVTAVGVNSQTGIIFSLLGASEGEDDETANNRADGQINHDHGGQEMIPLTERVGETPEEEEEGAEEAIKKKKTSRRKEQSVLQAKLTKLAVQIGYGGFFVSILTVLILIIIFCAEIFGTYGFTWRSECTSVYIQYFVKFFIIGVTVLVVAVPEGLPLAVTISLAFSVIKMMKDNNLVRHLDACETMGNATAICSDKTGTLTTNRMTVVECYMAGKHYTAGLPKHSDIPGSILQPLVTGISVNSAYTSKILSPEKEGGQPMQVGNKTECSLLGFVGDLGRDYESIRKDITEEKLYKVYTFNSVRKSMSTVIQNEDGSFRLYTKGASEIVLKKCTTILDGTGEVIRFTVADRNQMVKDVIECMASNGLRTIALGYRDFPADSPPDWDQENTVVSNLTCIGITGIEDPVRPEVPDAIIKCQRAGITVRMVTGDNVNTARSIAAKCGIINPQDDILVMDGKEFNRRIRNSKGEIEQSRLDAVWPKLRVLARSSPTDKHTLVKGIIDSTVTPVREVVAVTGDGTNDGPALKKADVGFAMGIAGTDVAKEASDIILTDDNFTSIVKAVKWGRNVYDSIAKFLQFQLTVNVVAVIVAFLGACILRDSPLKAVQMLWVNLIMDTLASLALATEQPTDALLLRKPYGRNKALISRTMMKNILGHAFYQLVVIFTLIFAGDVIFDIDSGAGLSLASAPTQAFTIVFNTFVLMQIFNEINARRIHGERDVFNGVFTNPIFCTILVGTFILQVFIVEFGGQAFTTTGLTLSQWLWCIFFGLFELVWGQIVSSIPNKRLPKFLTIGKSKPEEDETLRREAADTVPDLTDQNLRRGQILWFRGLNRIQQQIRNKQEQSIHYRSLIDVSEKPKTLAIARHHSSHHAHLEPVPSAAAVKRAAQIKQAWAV

For `C[C@@H](CCC[C@@H](C)[C@H]1CC[C@H]2[C@@H]3[C@H](O)C[C@H]4[C@@H](O)[C@H](OS(=O)(=O)O)CC[C@]4(C)[C@H]3CC[C@]12C)COS(=O)(=O)O` [SAAF], the “quartz crystal microbalance (QCM), mutant compared with wild-type membranes” value was “Atp2b-var.b-mut3 showed the same interaction compared to the wild-type”.
